Several values for one entry are separate records, joined by “and”; a condition that tells them apart may be missing. Equal entries are not always repeated.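 All cell lines were grown in 96-well plates and treated with compound for 48 hours. The concentration for 50% growth inhibition is given as GI50. At the TGI there is no net growth.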
What was measured:
Assay in all cases: NCI anticancer screen, dose series, 48 h
NCI-H460 lung = system: NCI-H460 lung
UACC-62 melanoma = system: UACC-62 melanoma
HT29 colon = system: HT29 colon
SF-295 CNS = system: SF-295 CNS
K-562 leukemia = system: K-562 leukemia
NCI-H226 lung = system: NCI-H226 lung
PC-3 prostate = system: PC-3 prostate
HCT-15 colon = system: HCT-15 colon
UACC-257 melanoma = system: UACC-257 melanoma
U251 CNS = system: U251 CNS

SMILES | GI50 (NCI-H460 lung) | TGI (NCI-H460 lung) | GI50 (UACC-62 melanoma) | TGI (UACC-62 melanoma) | GI50 (HT29 colon) | TGI (HT29 colon) | GI50 (SF-295 CNS) | GI50 (K-562 leukemia) | TGI (K-562 leukemia) | GI50 (NCI-H226 lung) | TGI (NCI-H226 lung) | GI50 (PC-3 prostate) | TGI (PC-3 prostate) | GI50 (HCT-15 colon) | TGI (HCT-15 colon) | GI50 (UACC-257 melanoma) | TGI (UACC-257 melanoma) | GI50 (U251 CNS) | TGI (U251 CNS) | TGI (SF-295 CNS)
O=C(CCCCCCCn1cc(-c2cccnc2)nn1)Nc1ccccc1-c1ccccc1 | 0.674 µM | > 100 µM | 9.68 µM | 47.3 µM | 0.506 µM | > 100 µM | 0.403 µM | 0.0633 µM | 44.7 µM | 14.5 µM | 50.2 µM | 0.43 µM | 36.7 µM | 0.231 µM | > 100 µM | 7.75 µM | 24.9 µM | 0.22 µM | > 100 µM | –
O=C(N/N=C/c1ccccc1O)C(O)(c1ccccc1)c1ccccc1 | 3.54 µM | > 100 µM | 15 µM | > 100 µM | 4.46 µM | > 100 µM | 4.5 µM | 6.73 µM | > 100 µM | > 100 µM | > 100 µM | > 100 µM | > 100 µM | 3.54 µM | > 100 µM | 5.99 µM | > 100 µM | 4.77 µM | > 100 µM | > 100 µM
Cc1nc2ccccn2c1NC(=O)NNC(=S)Nc1ccc(Br)cc1 | 34.1 µM | > 100 µM | 27.8 µM | > 100 µM | 24.9 µM | 69.8 µM | 57.5 µM | 21.8 µM | 54.6 µM | 38.4 µM | > 100 µM | 24.5 µM | > 100 µM | 28.8 µM | > 100 µM | 37.8 µM | > 100 µM | 32.1 µM | > 100 µM | > 100 µM
Cc1cc(C(=O)Nc2nc3cccc(Cl)c3n2[C@@H]2CCCCN(C(=O)/C=C/CN(C)C)C2)ccn1 | 8.7 µM | 23.1 µM | 15.3 µM | 31.5 µM | 9.91 µM | 30.2 µM | 13.9 µM | 9.58 µM | 61.5 µM | 16.3 µM | 32.1 µM | 9.22 µM | 28.2 µM | 4.42 µM | 19.7 µM | 18.8 µM | 34.1 µM | 11.2 µM | 26 µM | 28.6 µM
C[C@H](N)C(=O)N[C@@H]1[C@H]2C(=C(O)C[C@@H](O)[C@@H]2O)C(=O)O[C@]1(C)C(Cl)Cl | 0.146 µM | 1.4 µM and 1.2 µM | 0.27 µM | 1.66 µM and 1.1 µM | 0.282 µM | 1.69 µM and 1.3 µM | – | 0.229 µM and 0.233 µM | 9.75 µM and 2.84 µM | 0.266 µM | 1.34 µM and 1.06 µM | – | 3.89 µM and 1.37 µM | 0.894 µM | 10.1 µM and 5.57 µM | 0.096 µM | 1.16 µM and 1.94 µM | 0.171 µM | 3.08 µM and 2.29 µM | 1.31 µM
O=C(c1ccc(OCCN2CCCCC2)cc1)c1c(-c2ccc(O)cc2)sc2cc(O)ccc12 | 4.29 µM and 7.96 µM | 17.1 µM and 25.9 µM | 12 µM and 13.7 µM | 25.8 µM and 27.2 µM | 14.9 µM and 4.1 µM | 32.3 µM and 33.4 µM | 2.99 µM and 7.88 µM | 2.5 µM and 7.63 µM | – | 15 µM and 17 µM | 29.6 µM and 34.6 µM | 3.9 µM and 11.7 µM | 18.9 µM and 35.7 µM | 5.51 µM and 2.67 µM | 20.8 µM and 13.2 µM | 2.82 µM and 3.52 µM | 10.8 µM and 10.5 µM | 5.53 µM and 7.84 µM | 19.6 µM and 21.1 µM | 11 µM and 28.5 µM
CCc1c2c(nc3cc4c(c(N)c13)OCO4)-c1cc3c(c(=O)n1C2)COC(=O)[C@]3(O)CC | < 0.001 µM | 0.47 µM and 0.157 µM | < 0.001 µM | 0.405 µM and 0.236 µM | 0.0145 µM | > 100 µM | < 0.001 µM | 0.00135 µM | > 100 µM | < 0.001 µM | 0.202 µM | 0.228 µM and 0.0288 µM | > 100 µM | 0.277 µM and 0.178 µM | > 100 µM | 0.199 µM and 0.0583 µM | 2.58 µM and 2.47 µM | < 0.001 µM | 0.0326 µM and 0.174 µM | –
CC1=C(C(=O)Nc2ccccc2C)C(c2ccc(C3C(C(=O)Nc4ccccc4C)=C(C)NC(C)=C3C(=O)Nc3ccccc3C)cc2)C(C(=O)Nc2ccccc2C)=C(C)N1 | – | 24.9 µM | – | 4.65 µM | – | 4.62 µM | – | – | 25.4 µM | – | 28.7 µM | – | 16.1 µM | – | 23.5 µM | – | 9.84 µM | – | 7.34 µM | 17.1 µM
O=Cc1ccc(-c2ccc(-c3nc4ccccc4[nH]3)cc2)s1 | 13.1 µM | 29.7 µM | 22.1 µM | 52.9 µM | 38.9 µM | > 100 µM | 18.6 µM | 17.7 µM | 53 µM | 27.3 µM | 82.3 µM | 18.2 µM | 40.3 µM | 19.1 µM | 53.3 µM | 45.4 µM | > 100 µM | 26.7 µM | > 100 µM | 55.5 µM
Cc1ncc(C(=O)Nc2ccc(CN3CCN(C)CC3)c(C(F)(F)F)c2)cc1C#Cc1cnc(N)c2cnccc12 | 0.0647 µM | 1.54 µM | 0.019 µM | 0.105 µM | 0.021 µM | 1.19 µM | 0.309 µM | – | 1.29 µM | 0.175 µM | 3.09 µM | 0.225 µM | 16.3 µM | 0.389 µM | 4.41 µM | 0.0689 µM | 1.29 µM | 0.0864 µM | 2.35 µM | 14.8 µM
CNC1C(O)C(OC2C(N)CC(N)C(OC3OC(CN)=CCC3N)C2O)OCC1(C)O (centres undefined) | – | > 100 µM | – | > 100 µM | – | > 100 µM | – | – | > 100 µM | – | > 100 µM | – | > 100 µM | – | > 100 µM | – | > 100 µM | – | > 100 µM | > 100 µM
CCN(CC)c1ccc(C2CC(c3cc(OC)c(OC)c(OC)c3)=NN2)cc1 (centres undefined) | 0.331 µM | 11.8 µM | 0.446 µM | > 68.2 µM | 0.365 µM | > 43 µM | 0.188 µM | 0.336 µM | > 37.6 µM | 4.48 µM | > 29.7 µM | 0.342 µM | 35.2 µM | 0.597 µM | > 100 µM | 20.2 µM | > 100 µM | 0.42 µM | > 100 µM | 5.19 µM
CCCOc1ccc(-c2nc(-c3ccc(N=Cc4ccc(N(CCOS(C)(=O)=O)CCOS(C)(=O)=O)cc4C)cc3)cs2)cc1 | – | 24 µM | – | > 69.6 µM | – | > 73.9 µM | – | – | > 100 µM | – | 84.5 µM | – | 77.9 µM | – | > 72.2 µM | – | > 100 µM | – | 52.4 µM | 45.5 µM

Source: PubChem BioAssay (NCI)
